± gives the expanded uncertainty stated by the source.
What was measured:
[1] = 101 kPa, Liquid
[2] = xn = mol fraction of the nth substance listed; conditions: 101 kPa, Liquid

In the case of `CCO` [ethanol], the mass density ([1]; 293.15 K) is reported as 789.75 ± 0.46 kg/m3, the viscosity ([1]; 293.15 K) is reported as 1.187 ± 0.015 mPa·s and the mass density ([1]; 298.15 K) is reported as 785.46 ± 0.47 kg/m3. The viscosity ([1]; 298.15 K) was 1.082 ± 0.014 mPa·s, the mass density ([1]; 303.15 K) was 781.15 ± 0.47 kg/m3 and the viscosity ([1]; 303.15 K) was 0.987 ± 0.013 mPa·s.
`COC(C)=O` [methyl ethanoate] showed a mass density ([1]; 293.15 K) of 933.56 ± 0.4 kg/m3, a viscosity ([1]; 293.15 K) of 0.386 ± 0.006 mPa·s and a mass density ([1]; 298.15 K) of 926.98 ± 0.41 kg/m3. It also gave a viscosity ([1]; 298.15 K) of 0.367 ± 0.006 mPa·s, a mass density ([1]; 303.15 K) of 920.34 ± 0.42 kg/m3 and a viscosity ([1]; 303.15 K) of 0.348 ± 0.006 mPa·s.
With `CCOC(C)=O` [ethyl acetate] + CO the mass density ([2]; 293.15 K, x2 = 0) was 900.52 ± 0.29 kg/m3, the viscosity ([2]; 293.15 K, x2 = 0) was 0.452 ± 0.007 mPa·s and the mass density ([2]; 293.15 K, x2 = 0.0474) was 898.51 ± 0.29 kg/m3. It also gave a viscosity ([2]; 293.15 K, x2 = 0.0474) of 0.447 ± 0.007 mPa·s, a mass density ([2]; 293.15 K, x2 = 0.097) of 896.18 ± 0.3 kg/m3 and a viscosity ([2]; 293.15 K, x2 = 0.097) of 0.443 ± 0.006 mPa·s. The mass density ([2]; 293.15 K, x2 = 0.1956) was 891.18 ± 0.3 kg/m3, the viscosity ([2]; 293.15 K, x2 = 0.1956) was 0.442 ± 0.006 mPa·s and the mass density ([2]; 293.15 K, x2 = 0.2999) was 884.93 ± 0.31 kg/m3. For the same compound, the viscosity ([2]; 293.15 K, x2 = 0.2999) was 0.442 ± 0.006 mPa·s, the mass density ([2]; 293.15 K, x2 = 0.3963) was 878.26 ± 0.33 kg/m3 and the viscosity ([2]; 293.15 K, x2 = 0.3963) was 0.447 ± 0.007 mPa·s. For the same compound, the mass density ([2]; 293.15 K, x2 = 0.4962) was 870.14 ± 0.34 kg/m3, the viscosity ([2]; 293.15 K, x2 = 0.4962) was 0.453 ± 0.007 mPa·s and the mass density ([2]; 293.15 K, x2 = 0.5963) was 860.45 ± 0.35 kg/m3. The viscosity ([2]; 293.15 K, x2 = 0.5963) was 0.463 ± 0.007 mPa·s, the mass density ([2]; 293.15 K, x2 = 0.6998) was 848.26 ± 0.37 kg/m3 and the viscosity ([2]; 293.15 K, x2 = 0.6998) was 0.481 ± 0.007 mPa·s. For the same compound, the mass density ([2]; 293.15 K, x2 = 0.7992) was 833.88 ± 0.39 kg/m3, the viscosity ([2]; 293.15 K, x2 = 0.7992) was 0.504 ± 0.007 mPa·s and the mass density ([2]; 293.15 K, x2 = 0.9005) was 815.52 ± 0.42 kg/m3. It also gave a viscosity ([2]; 293.15 K, x2 = 0.9005) of 0.536 ± 0.008 mPa·s, a mass density ([2]; 298.15 K, x2 = 0) of 894.43 ± 0.3 kg/m3 and a viscosity ([2]; 298.15 K, x2 = 0) of 0.426 ± 0.006 mPa·s. It also gave a mass density ([2]; 298.15 K, x2 = 0.0474) of 892.43 ± 0.3 kg/m3, a viscosity ([2]; 298.15 K, x2 = 0.0474) of 0.422 ± 0.006 mPa·s and a mass density ([2]; 298.15 K, x2 = 0.097) of 890.12 ± 0.31 kg/m3. For the same compound, the viscosity ([2]; 298.15 K, x2 = 0.097) was 0.418 ± 0.006 mPa·s, the mass density ([2]; 298.15 K, x2 = 0.1956) was 885.16 ± 0.31 kg/m3 and the viscosity ([2]; 298.15 K, x2 = 0.1956) was 0.417 ± 0.006 mPa·s. The mass density ([2]; 298.15 K, x2 = 0.2999) was 878.99 ± 0.32 kg/m3, the viscosity ([2]; 298.15 K, x2 = 0.2999) was 0.419 ± 0.006 mPa·s and the mass density ([2]; 298.15 K, x2 = 0.3963) was 872.38 ± 0.34 kg/m3. For the same compound, the viscosity ([2]; 298.15 K, x2 = 0.3963) was 0.421 ± 0.006 mPa·s, the mass density ([2]; 298.15 K, x2 = 0.4962) was 864.36 ± 0.35 kg/m3 and the viscosity ([2]; 298.15 K, x2 = 0.4962) was 0.427 ± 0.006 mPa·s. The mass density ([2]; 298.15 K, x2 = 0.5963) was 854.82 ± 0.36 kg/m3, the viscosity ([2]; 298.15 K, x2 = 0.5963) was 0.435 ± 0.006 mPa·s and the mass density ([2]; 298.15 K, x2 = 0.6998) was 842.81 ± 0.38 kg/m3. For the same compound, the viscosity ([2]; 298.15 K, x2 = 0.6998) was 0.451 ± 0.007 mPa·s, the mass density ([2]; 298.15 K, x2 = 0.7992) was 828.62 ± 0.4 kg/m3 and the viscosity ([2]; 298.15 K, x2 = 0.7992) was 0.472 ± 0.007 mPa·s. It also gave a mass density ([2]; 298.15 K, x2 = 0.9005) of 810.5 ± 0.43 kg/m3, a viscosity ([2]; 298.15 K, x2 = 0.9005) of 0.501 ± 0.007 mPa·s and a mass density ([2]; 303.15 K, x2 = 0) of 888.3 ± 0.31 kg/m3. The viscosity ([2]; 303.15 K, x2 = 0) was 0.403 ± 0.006 mPa·s, the mass density ([2]; 303.15 K, x2 = 0.0474) was 886.3 ± 0.31 kg/m3 and the viscosity ([2]; 303.15 K, x2 = 0.0474) was 0.4 ± 0.006 mPa·s. For the same compound, the mass density ([2]; 303.15 K, x2 = 0.097) was 884.01 ± 0.32 kg/m3, the viscosity ([2]; 303.15 K, x2 = 0.097) was 0.396 ± 0.006 mPa·s and the mass density ([2]; 303.15 K, x2 = 0.1956) was 879.09 ± 0.32 kg/m3. It also gave a viscosity ([2]; 303.15 K, x2 = 0.1956) of 0.396 ± 0.006 mPa·s, a mass density ([2]; 303.15 K, x2 = 0.2999) of 872.98 ± 0.33 kg/m3 and a viscosity ([2]; 303.15 K, x2 = 0.2999) of 0.398 ± 0.006 mPa·s. The mass density ([2]; 303.15 K, x2 = 0.3963) was 866.46 ± 0.34 kg/m3, the viscosity ([2]; 303.15 K, x2 = 0.3963) was 0.398 ± 0.006 mPa·s and the mass density ([2]; 303.15 K, x2 = 0.4962) was 858.55 ± 0.36 kg/m3. For the same compound, the viscosity ([2]; 303.15 K, x2 = 0.4962) was 0.403 ± 0.006 mPa·s, the mass density ([2]; 303.15 K, x2 = 0.5963) was 849.15 ± 0.37 kg/m3 and the viscosity ([2]; 303.15 K, x2 = 0.5963) was 0.41 ± 0.006 mPa·s. For the same compound, the mass density ([2]; 303.15 K, x2 = 0.6998) was 837.3 ± 0.39 kg/m3, the viscosity ([2]; 303.15 K, x2 = 0.6998) was 0.425 ± 0.006 mPa·s and the mass density ([2]; 303.15 K, x2 = 0.7992) was 823.31 ± 0.41 kg/m3. The viscosity ([2]; 303.15 K, x2 = 0.7992) was 0.443 ± 0.006 mPa·s, the mass density ([2]; 303.15 K, x2 = 0.9005) was 805.45 ± 0.44 kg/m3 and the viscosity ([2]; 303.15 K, x2 = 0.9005) was 0.469 ± 0.007 mPa·s.
`O` [water] + CCO gave a viscosity ([2]; 293.15 K, x1 = 1) of 1.002 ± 0.013 mPa·s, a viscosity ([2]; 298.15 K, x1 = 1) of 0.89 ± 0.012 mPa·s and a viscosity ([2]; 303.15 K, x1 = 1) of 0.797 ± 0.011 mPa·s.
